Counter-ions that a name gives are not always drawn.
Tests used:
[1] = molecular target: trypanothione synthetase of L. infantum (LiTryS) (Leishmania infantum, UniProt A4I2Z3); assay: TryS activity screening assay on recombinant LiTryS; type: biochemical; conditions: for activity at 30 µM: read-out: LiTryS activity [% at 30 μM]; for LiTryS activity [% at 30 μM]: recombinant TryS, % activity at 30 μM compound, errors 2 SD
Experimental: (§1) TryS from different trypanosomatids was produced in recombinant form with an N-terminal His-tag. The constructs pET-15b TbTryS and pET-28c(+)LiTryS were used to express TryS of T. b. brucei 427 (MITat1.4, GenBank accession protein id CAC87573.1), and L. infantum JPCM5 (GenBank accession protein id CAM69145.1). E. coli strain BL21 (DE3) served as the expression host. For TbTryS, the cells were cultured in a medium based in Terrific Broth and induction with isopropyl 1-thio-β-D-galactopyranoside (IPTG), while for LiTryS, the cells were cultured in ZYM-5052 auto-induction medium. For a detailed description of the expression, see Benítez et al.. The purification was performed by immobilised metal affinity chromatography in a HisTrap Fast Flow column (GE Healthcare) followed by size exclusion chromatography. […] The fractions containing recombinant TryS with ≥95% purity were pooled and concentrated to >10 mg protein/mL using a 10 kDa cut-off Amicon filter (Millipore, Billerica, CA). Glycerol was added at a final concentration of 40% (v/v). The samples were stored at -80°C. Enzyme purity and activity were assessed by SDS-PAGE (12%) under reducing conditions and by the end-point TryS assay (see TryS activity screening assay), respectively. Protein concentration was determined using the bicinchoninic acid assay with bovine serum albumin as standard. The protocols yielded 25–30 mg TbTryS or LiTryS per litre of culture medium and homogeneous specific activity.
(§2) For all TryS, ATP was used at 150 μM because of a high background signal at higher concentrations and Spd fixed at 2 mM, in agreement with the intracellular levels calculated from data reported in the literature for trypanosomatids. GSH was adjusted to 0.05 and 0.25 mM for TbTryS and LiTryS, respectively, to avoid substrate inhibition or to approach physiological concentrations. […] Microtiter plate wells were loaded with 5 μL of the test compound, DMSO (reaction control) or a TryS specific inhibitor (inhibition control) and 40 μL of MM solution. The reactions were then started by adding 5 μL of TryS (2 and 3*10^−5 μmol*min^-1*mL^-1 for LiTryS and TbTryS, respectively) and stopped after 15 min with 200 μL BIOMOL® GREEN reagent (Enzo Life Sciences). The compounds used as inhibition control were added at concentrations that inhibited 50% TryS activity: 30 μM and 150 nM MOL2008 for TbTryS and LiTryS, respectively. Blanks were prepared for each condition by adding 5 μL of screening reaction buffer instead of the enzyme. The TryS activity is calculated as follows: TrySactivity%=A650nmCi-A650nmCiB/A650nmE-A650nmEB*100%
(§3) A650 nm Ci is the mean absorbance at 650 nm for the reaction test with compound I (Ci), A650 nm CiB is the mean absorbance at 650 nm for the blank control with compound I (CiB), A650 nm E is the mean absorbance at 650 nm for the reaction control with DMSO (E) and A650 nm EB is the mean absorbance at 650 nm for the blank control with DMSO (EB). The errors were expressed as 2 standard deviations (SD), SD estimated as σ^n−1.

[2] = tested on: L. infantum amastigotes (intracellular, in J774.A1 macrophages); assay: Viability assay for L. infantum amastigotes; type: cell-based; conditions: Leishmania infantum, J774.A1, 24 h, read-out: L. infantum amastigote viability [% at 20 μM]
Experimental: Viability assay for L. infantum amastigotes. L. infantum promastigotes from the reference strain MHOM/MA/67/ITMAP263, stably transfected with a vector encoding a red-shifted luciferase gene (RE9HLUC; Branchini et al.; Benítez et al.) were grown in fresh complete RPMI medium (RPMI basic medium containing 25 mM HEPES, 10% v/v iFBS, 100 U/mL penicillin, 100 μg/mL streptomycin and 15 μg/mL hygromycin B) at 28°C in sealed culture flasks. Metacyclic promastigotes were obtained by a negative selection procedure using peanut agglutinin and used to infect murine macrophages (cell line J774.A1) at a 1:10 ratio for macrophages (5×10^6 cells): parasites (5×10^7 cells). 200 μL of this suspension was added per well to a 96-well culture microplate, which was then incubated at 37°C for 24 h in a 5% CO2/95% air atmosphere incubator. […] The culture microplate was incubated in the CO2 incubator for additional 24 h. Next, the supernatant was removed and the microplate wells were washed with pre-warmed PBS (200 μL). […] All conditions were tested in triplicates and the percentage amastigote viability was calculated as described for infective T. b. brucei, with errors expressed as one SD, estimated as σ^n-1.
A macrophage cell density correction factor based on the incorporation of propidium iodide was calculated and applied to normalise amastigote viability related to host cell density in the well. For a detailed explanation of the protocol, see Benítez et al..

[3] = Kinetic aqueous solubility by nephelometry; type: physicochemical; conditions: phosphate-buffered saline, aqueous buffer, kinetic from dmso stock, PBS pH 7.4, 1% DMSO, 25°C, logS = decadic logarithm of molar solubility [M]
Experimental: Phosphate-buffered saline pH 7.4 was prepared according to the European Pharmacopeia 10.4 by dissolving 2.38 g sodium monohydrogen phosphate dodecahydrate, 0.19 g potassium dihydrogen phosphate and 8.0 g sodium chloride in demineralised water (to a total volume of 1000 mL). The pH was adjusted to a value of 7.4 with hydrochloric acid. The buffer was filtered through a 0.45 μm membrane filter (Chromafil® Xtra PES-45/25) before use.
The kinetic aqueous solubility was determined by nephelometry. The measurements were performed on the NEPHELOstar Plus, with accompanying software Omega 5.11 and MARS 3.20 (BMG LABTECH, Ortenberg, Germany). Generally, 2 dilution series of 1–2 weighed portions of each substance were measured. First, stock solutions of the compounds were prepared in DMSO. A series of dilutions in DMSO were prepared from one stock solution to obtain at least 3 concentrations below and 3 concentrations above the precipitation point in the measured series. The specific concentrations were usually measured as duplicates.
The 96-well plate (Corning UV transparent flat-bottom 96-well plate, Corning Incorporated, Kennenbunk, ME, USA) was inspected for contamination and scratches and measured without samples prior to the solubility measurement of the compounds. 198 μL of phosphate-buffered saline pH 7.4 was placed in a 96 well plate for each well to be measured. 2 μL of a DMSO solution was added and immediately mixed by moving the pipette plunger. This solution either contained no substance—and served as a blank for the measurement (3 wells)—or the respective DMSO dilution of the substance (2–4 wells). The concentration of the solvent DMSO in each measured solution was 1%. The concentration of the compound corresponds to a 1:100 dilution compared to the respective DMSO dilution. The well plate bottom was cleaned with a lint-free cloth and compressed air and inspected for impurities before measurement. After shaking at 500 rpm for 10 s (double orbital), the measurement was carried out in the nephelometer with the laser intensity set to 80% and beam focus of 2.5 mm at a temperature of 25°C.
The obtained measuring points, relative nephelometric units (RNU) per compound concentration, were used to model two straight lines: one straight line with constant low readings and slope → 0 characterises the concentration range where no precipitation has taken place yet; The other straight line has a steep slope and increase of the RNU per concentration and characterises the concentrations at which precipitation takes place in the respective sample vessels.
The evaluation was carried out by calculating the two straight lines and their point of intersection. Outliers and values in a saturation range for the kick-off curve (usually >800 kRNU) were not used to create the straight lines and are listed separately in the evaluation file. […] The x-value of the intersection of the two straight lines represents the kinetic solubility. The results of two dilution series are additionally indicated as range (in brackets). For measurements of 3 or more series, a mean value with standard deviation is provided. The logS value describes the decadic logarithm of the molar solubility: logS (molar solubility [M]).

[4] = tested on: trypanothione synthetase of T. b. brucei (TbTryS); assay: TryS activity screening assay on recombinant TbTryS; type: biochemical; conditions: % activity at 30 μM compound, errors 2 SD
Experimental: as §1, §2, §3

[5] = tested on: bloodstream form of T. b. brucei strain 427; assay: Viability assay for T. b. brucei (whole parasite, bioluminescence); type: cell-based; conditions: 24 h; for T. b. brucei (BS) proliferation [% at 10 μM]: 10 μM compound
Experimental: Viability assay for T. b. brucei. The bloodstream form of the monomorphic T. b. brucei strain 427, cell line 5141313, constitutively and stably expressing an ectopic copy of the Photinus pyralis red-shifted luciferase, was cultured in vitro with HMI-9 medium, supplemented with 10% fetal bovine serum, 10 U/mL penicillin (Gibco), 10 μg/mL streptomycin (Gibco), 0.2 μg/mL bleomycin (Jena Bioscience), 4 μg/mL G418 disulfate salt (Sigma-Aldrich) and 0.2 μg/mL puromycin (Invitrogen), inside a humidified incubator (Thermo Fisher Scientific) with controlled temperature (37°C) and CO2 (5%) in a 25 or 75 cm^2 vented-cap culture-flask. The anti-trypanosomal activity of compounds was evaluated in a 96-well culture plate containing 2.2 μL/well DMSO (negative control) or compounds dissolved in DMSO (1% final concentration), and 220 μL/well of a suspension of 1 × 10^5 parasites/mL. The plates were incubated at 37°C and 5% CO2 for 24 h. Next, each well was transferred to a 96-well black plate, and 20 μL of a solution containing d-luciferin (1.5 mg/mL in PBS glucose 1% w/v) and Triton X-100 (0.05% v/v) was added. Bioluminescence signal was measured in a LUMIstar OPTIMA Microplate luminometer using the following settings: 10 s shaking, 5 s/well acquisition, 0.2 s measurement delay, maximum gain, and 37°C. For the bioluminescence assay, parasite viability was calculated according to the following formula: parasiteviability%=BLcpd-BLblank/BLneg-BLblank*100%
BL refers to the mean of bioluminescence signal corresponding to the tested compound (cpd), the blank (blank, complete media containing 1% v/v DMSO), or the negative control (neg, parasites treated with 1% v/v DMSO). EC50 values were determined from concentration-response curves fitted to a four-parameter sigmoid equation using the GraphPad Prism software (version 6.0). All errors are expressed as one SD, estimated as σ^n-1. For a detailed explanation of the protocol, see Dibello et al..

Chain of trypanothione synthetase of L. infantum (LiTryS) (A4I2Z3 entry or part of it): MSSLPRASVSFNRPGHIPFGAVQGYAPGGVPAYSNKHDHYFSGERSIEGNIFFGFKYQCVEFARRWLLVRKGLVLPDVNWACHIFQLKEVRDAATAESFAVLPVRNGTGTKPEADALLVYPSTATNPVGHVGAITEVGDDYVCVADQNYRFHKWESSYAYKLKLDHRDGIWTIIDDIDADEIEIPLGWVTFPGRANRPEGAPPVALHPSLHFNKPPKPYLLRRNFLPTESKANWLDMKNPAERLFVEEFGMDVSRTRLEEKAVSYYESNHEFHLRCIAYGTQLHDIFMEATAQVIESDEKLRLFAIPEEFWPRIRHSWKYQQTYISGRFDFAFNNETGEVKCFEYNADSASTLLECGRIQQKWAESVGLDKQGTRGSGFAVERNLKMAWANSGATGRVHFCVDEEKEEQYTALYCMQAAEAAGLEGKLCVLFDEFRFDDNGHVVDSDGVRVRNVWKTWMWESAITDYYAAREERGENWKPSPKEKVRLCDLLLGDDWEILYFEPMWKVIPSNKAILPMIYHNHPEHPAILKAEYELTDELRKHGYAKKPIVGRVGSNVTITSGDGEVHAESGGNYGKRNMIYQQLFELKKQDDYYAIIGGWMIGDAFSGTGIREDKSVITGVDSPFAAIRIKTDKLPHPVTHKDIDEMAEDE

SMILES | activity at 30 µM [1] [%] | viability at 20 µM [2] [%] | solubility kinetic at 10 s [3] [M] | LiTryS activity [% at 30 μM] [1] | TbTryS activity [% at 30 μM] [4] [%] | T. b. brucei (BS) proliferation [% at 10 μM] [5] [%] | EC50 ([5]; Trypanosoma brucei, read-out: T. b. brucei (BS) [EC50) [µM]
CON=C1CCC(=O)N(CC(=O)NCCN2CCNCC2)c2ccccc21 (mixture of isomers) [5d, (E/Z)-2-[5-(Methoxyimino)-2-oxo-2,3,4,5-tetrahydro-1H-benzo[b]azepin-1-yl]-N-[2-(piperazin-1-yl)ethyl]acetamide dihydrochloride] | 97.5 ± 4.7 | 74.9 ± 11.2 | > 0.001 | – | – | – | –
Cl.O=C(CN1C(=O)CCCc2ccccc21)N1CCNCC1 [2q, 1-[2-Oxo-2-(piperazin-1-yl)ethyl]-1,3,4,5-tetrahydro-2H-benzo[b]azepin-2-one hydrochloride] | 113 ± 10.7 | – | > 0.00398 | – | – | – | –
O=C(O)CN1C(=O)Cc2c([nH]c3ccc(I)cc23)-c2ccc(Cl)cc21 [9a, 2-(3-Chloro-9-iodo-6-oxo-7,12-dihydrobenzo[2,3]azepino[4,5-b]indol-5(6H)-yl)acetic acid] | 67.2 ± 3.9 | – | – | moderate inhibitory activity | 102.9 ± 6.7 | 24.2 ± 3.4 | 10.5 ± 1.3
O=C(O)CN1C(=O)Cc2c([nH]c3ccc(Cl)cc23)-c2ccc(Cl)cc21 [9b, 2-(3,9-Dichloro-6-oxo-7,12-dihydrobenzo[2,3]azepino[4,5-b]indol-5(6H)-yl)acetic acid] | 90.2 ± 6.7 | – | – | – | 104.0 ± 10.1 | 56.4 ± 3.8 | –
O=C(O)CN1C(=O)Cc2c([nH]c3ccc(C(F)(F)F)cc23)-c2ccc(Cl)cc21 [9c, 2-(3-Chloro-6-oxo-9-trifluoromethyl-7,12-dihydrobenzo[2,3]azepino[4,5-b]indol-5(6H)-yl)acetic acid] | 62.4 ± 6.4 | – | – | moderate inhibitory activity | 110.2 ± 11.5 | 61.6 ± 10.2 | –
